The text below walks through data of US10526646B2, “Chromogenic peroxidase substrates” (Dako Denmark A/S, priority 2015, dated 2020).

In brackets after ≈: the same amount, converted by molar mass.

As usually defined, the solubility is how much of the substance goes into solution per volume. Lower therefore signals little dissolved substance.

Data set [1] addresses T1, HRP (Armoracia rusticana, UniProt P00433).
T1 construct: purchased Dako K4061
T1 sequence (P00433 31-338): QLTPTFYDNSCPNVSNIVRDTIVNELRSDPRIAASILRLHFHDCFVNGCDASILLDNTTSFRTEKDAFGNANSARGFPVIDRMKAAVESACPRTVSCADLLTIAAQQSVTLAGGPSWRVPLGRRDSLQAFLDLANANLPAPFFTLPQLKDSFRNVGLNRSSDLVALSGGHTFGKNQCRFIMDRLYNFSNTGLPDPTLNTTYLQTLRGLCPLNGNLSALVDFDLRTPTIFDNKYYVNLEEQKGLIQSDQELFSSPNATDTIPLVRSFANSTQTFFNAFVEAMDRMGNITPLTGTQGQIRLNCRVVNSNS
In words: IHC staining of FFPE human tissues and Her2 control cell lines, Envision+ Dual link HRP visualization, DAB as reference. Also noted: species or system horse radish. The conditions noted are these: for staining in the high expression range: very high expression targets, trained observers; for colour of IHC stain / stain intensity and crispness compared with DAB: tested in 0.4 to 1 mM; for stain intensity and crispness compared with DAB: low and medium expression targets.

In data set [2] the target is T1, HRP. Put plainly: Triple immunohistochemical staining (Ki67, CD20, Her2) on Dako Autostainer. Also noted: species or system horse radish. Particulars: 0.5 mM conjugate, 50 mM imidazole:HCl pH 6.8, 0.003% hydrogen peroxide, 2.5% NMP, 5 min. The procedure:
The exemplary triple staining method employed DAB in combination with Compounds 2 and 8, on a Dako Autostainer at room temperature. The steps of the method included: • 1. Blocking of endogenous peroxidase with peroxidase block (Dako S2023), 5 min. • 2. antiKi67 RTU antibody (Dako IR626), 20 mm • 3. Envision+dual Link HRP (Dako K4061), 20 min • 4. DAB (Dako K3468) 5 min. • 5. HRP quenching with peroxidase block (Dako S2023) with addition of 5 mg/mL alphacyano cinnamic acid, 5 min. • 6. antiCD20cy RTU antibody (Dako IR604), 20 min • 7. Envision+dual Link HRP (Dako K4061), 20 min • 8. 0.5 mM compound 2 in 50 mM imidazole: HCl pH 6.8, 0.003% hydrogen peroxide and 2.5% NMP, 5 min. • 9. HRP quenching with peroxidase block (Dako S2023) with addition of 5 mg/mL alphacyano cinnamic acid, 5 min. • 10. antiHer2 (Dako vial ST301 from HercepTest kit SK001) 20 min. • 11. Envision+dual Link HRP (Dako K4061), 20 min • 12. 0.5 mM compound 8 in 50 mM imidazole: HCl pH 6.8, 0.003% hydrogen peroxide and 2.5% NMP, 5 min. • 13. Counter stain with haematoxylin (Dako S3301)

A short description of data set [3]: UV-VIS absorbance maxima of chromogenic conjugates and mixtures. It is filed as physicochemical. The procedure:
“Spectrally narrow” refers to a chromogen having less that 50 nm broadness at its maximum absorbance at half peak height by UV-VIS spectroscopy, measured in +99% water at pH, 6-8 in 10 μM concentration. A “magenta chromogen” is a spectrally narrow chromogen with peak absorbance between 525 and 530 nm, measured in +99% water at pH, 6.0-8.0 in 10 μM concentration. A “greenish-yellow chromogen” is a chromogen with peak absorbance below 475 nm and less than 10% absorbance at 530 nm or above relative to the peak absorbance, measured in +99% water at pH, 6.0-8.0 in 10 μM concentration. A “yellow chromogen” is a chromogen with peak absorbance below 505 nm and less than 10% absorbance at 530 nm or above relative to the peak absorbance, measured in +99% water at pH, 6.0-8.0 in 10 μM concentration. A “cyan chromogen” is a chromogen having maximal absorbance above 615 nm and less than 10% relative absorbance at any wavelength between 530 and 400 nm relative to the peak absorbance, measured in +99% water at pH, 6.0-8.0 m 10 μM concentration. An “orange chromogen” is a “spectrally narrow” chromogen that has maximum absorbance between 495 and 520 nm, measured in +99% water at pH, 6-8 in 10 μM concentration. A “dichroic chromogen” is a chromogen that has at least two absorbance maxima, separated by a local minimum at least 50 nm wide and one further global minimum between 390 and 700 nm measured in water between pH 6 and 8.

For data set [4], the target named is T1, HRP. In words: Tissue staining with mixtures of chromogens in chromogen buffer. Set-up: species or system horse radish.
Data set [5] has as its target T1, HRP. In words: Fast CISH on human tissue slides, antiFITC-HRP. Also noted: species or system horse radish. Particulars: 1 mM in substrate buffer pH 6.8, 0.003% hydrogen peroxide, 5 min.
Data set [6] is described as follows: Solubility in substrate buffer as function of percentage of NMP. It is filed as physicochemical. The method, then:
Only Compound 6 having a piperazine amide stands out by absorbing at 536 nm, around 5 nm above the esters comprising Compounds 2, 13, 14 and 15 all with abs max within 531-533 nm. […] Addition of NMP to the buffer in all cases increased chromogen solubility. See result table below of the solubility of 2, 13 and 15 as function of percentage of NMP as organic co solvent, 0% representing neat aqueous buffer 50 mM imidazole: HCl, pH 6.8, 3% and 10% said percent.

Consider `Nc1ccc(-c2ccc(N)c(N)c2)cc1N` [DAB, 3,3′-diaminobenzidine, reference compound], for which the “staining in the high expression range” value at HRP [1] was “tended to over-stain and blackout morphological details”. In addition, the “stain produced in triple staining” value at HRP [2] is listed as “brown ki67 nuclear stain”.
On to `CCN(CC)c1ccc2c(-c3ccccc3C(=O)N3CCN(CC(=O)NCCOCCOCCNC(=O)/C=C/c4ccc(O)cc4)CC3)c3ccc(=[N+](CC)CC)cc-3oc2c1` [Compound 8, RhodamineB-Pip-L12-Cou], for which, at HRP [1], the “colour of IHC stain” value is reported as “slightly bluish purple stains”; the “stain intensity and crispness compared with DAB” value is “more than matched DAB in intensity and crispness”. Further, the “stain produced in triple staining” value at HRP [2] was “purple CD20 membrane stain”. In addition, in data set [3], the “Absp nm (max)” value is given as 567 nm.
On to `CC/N=c1\cc2oc3cc(NCC)c(C)cc3c(-c3ccccc3C(=O)OCC(=O)NCCOCCOCCNC(=O)/C=C/c3ccc(O)cc3)c-2cc1C` [Compound 2, Rhodamine 6G-L12-Cou], for which the “intensity compared with DAB” value on HRP [4] (0.6 mM in 15 mM imidazole pH 6.8, 4% NMP, 0.1% NP40-Nonidet, 0.01% Benzalkonium chloride, 0.03% hydrogen peroxide) is “matching DAB in intensity in the low range”. Further, the “colour of stain of compound alone” value on HRP [4] (alone) is on record as “changed from bright magenta at low intensities toward more full reds at higher intensities”. In addition, the “IHC staining performance of Rhodamine 6G derivatives with different 4-hydroxy cinnamic acid derivatives” value on HRP [1] (peroxidase substrate moiety varied) is “both strong and crisp stains with no background”. Besides, on HRP [1], the “colour of IHC stain” value is “red stains”; the “stain intensity and crispness compared with DAB” value is “fully matched DAB in intensity and crispness”; the “staining in the high expression range” value was “performed better and more dynamically in the high expression range”. For the same molecule, the mutagenicity result in “Mutagenicity test” was “does not have significant mutagenicity”. In addition, the “stain produced in triple staining” value at HRP [2] is reported as “red Her2 membrane stain”. Besides, at HRP [5], the CISH signals entry was “large and distinct dots in both Tonsil tissues”. In addition, the “Absp nm (max)” value in data set [3] is 531 nm. Moreover, the solubility in data set [6] (imidazole:HCl buffer (substrate buffer) with 3% NMP, aqueous buffer, 3% NMP in 50 mM imidazole:HCl pH 6.8) was 1200 µM (≈ 899 µg/mL). Also, the solubility in data set [6] (imidazole:HCl buffer (substrate buffer) with 10% NMP, aqueous with cosolvent or surfactant or cyclodextrin, 10% NMP in 50 mM imidazole:HCl pH 6.8) came to 3600 µM (≈ 2700 µg/mL). Besides, the solubility in data set [6] (imidazole:HCl buffer (substrate buffer), 0% NMP, neat aqueous buffer 50 mM imidazole:HCl pH 6.8) was 1000 µM (≈ 749 µg/mL).
